# Results from PMC9599520, “The Membrane Activity of the Amphibian Temporin B Peptide Analog TB_KKG6K Sheds Light on the Mechanism That Kills Candida albicans” (mSphere, 2022).
# Values joined by “and” are separate entries in the source; they are usually repeats but may differ in a detail not shown here. Identical values can stand only once. Where no end group is shown, it is not given here.
# Assays:
# [1] = system: C. albicans cell membrane; assay: Membrane depolarization assay with DiSC3(5) dye; assay type: cell-based, Candida albicans
# [2] = Vesicle leakage assay, PG; assay type: biochemical; conditions: for relative change in leakage compared to PC-LUVs: P ≤ 0.05; for % Leakage: PG-LUVs, 50 μM lipid, ANTS-DPX, HEPES pH 7.4, 30 min, 37°C, 1% Triton X-100 = 100%, mean ± SD, 2 experiments in duplicates
# [3] = Vesicle leakage assay, PG-PE-CL; assay type: biochemical; conditions: PG-PE-CL-LUVs, 50 μM lipid, ANTS-DPX, HEPES pH 7.4, 30 min, 37°C, 1% Triton X-100 = 100%, mean ± SD, 2 experiments in duplicates
# [4] = Vesicle leakage assay, PC; assay type: biochemical; conditions: PC-LUVs, 50 μM lipid, ANTS-DPX, HEPES pH 7.4, 30 min, 37°C, 1% Triton X-100 = 100%, mean ± SD, 2 experiments in duplicates
# [5] = Vesicle leakage assay, PC-sphingomyelin; assay type: biochemical; conditions: for relative change in leakage compared to PC-LUVs: P ≤ 0.05; for % Leakage: PC-sphingomyelin-LUVs, 50 μM lipid, ANTS-DPX, HEPES pH 7.4, 30 min, 37°C, 1% Triton X-100 = 100%, mean ± SD, 2 experiments in duplicates
# [6] = Vesicle leakage assay, PC-ceramide; assay type: biochemical; conditions: for % Leakage: PC-ceramide-LUVs, 50 μM lipid, ANTS-DPX, HEPES pH 7.4, 30 min, 37°C, 1% Triton X-100 = 100%, mean ± SD, 2 experiments in duplicates
# [7] = Vesicle leakage assay, PC-PI; assay type: biochemical; conditions: for relative change in leakage compared to PC-LUVs: P ≤ 0.05; for % Leakage: PC-PI-LUVs, 50 μM lipid, ANTS-DPX, HEPES pH 7.4, 30 min, 37°C, 1% Triton X-100 = 100%, mean ± SD, 2 experiments in duplicates
# [8] = Vesicle leakage assay, PC-PE; assay type: biochemical; conditions: for relative change in leakage compared to PC-LUVs: P ≤ 0.05; for % Leakage: PC-PE-LUVs, 50 μM lipid, ANTS-DPX, HEPES pH 7.4, 30 min, 37°C, 1% Triton X-100 = 100%, mean ± SD, 2 experiments in duplicates
# [9] = Vesicle leakage assay, PC-PS; assay type: biochemical; conditions: for % Leakage: PC-PS-LUVs, 50 μM lipid, ANTS-DPX, HEPES pH 7.4, 30 min, 37°C, 1% Triton X-100 = 100%, mean ± SD, 2 experiments in duplicates
# [10] = Vesicle leakage assay, PC-ergosterol; assay type: biochemical; conditions: for relative change in leakage compared to PC-LUVs: P ≤ 0.05; for % Leakage: PC-ergosterol-LUVs, 50 μM lipid, ANTS-DPX, HEPES pH 7.4, 30 min, 37°C, 1% Triton X-100 = 100%, mean ± SD, 2 experiments in duplicates
# [11] = Vesicle leakage assay, PC-PE-ergosterol; assay type: biochemical; conditions: for relative change in leakage compared to PC-LUVs: P ≤ 0.05; for % Leakage: PC-PE-ergosterol-LUVs, 50 μM lipid, ANTS-DPX, HEPES pH 7.4, 30 min, 37°C, 1% Triton X-100 = 100%, mean ± SD, 2 experiments in duplicates
# [12] = Vesicle leakage assay, PC-PS-ergosterol; assay type: biochemical; conditions: for relative change in leakage compared to PC-LUVs: P ≤ 0.05; for % Leakage: PC-PS-ergosterol-LUVs, 50 μM lipid, ANTS-DPX, HEPES pH 7.4, 30 min, 37°C, 1% Triton X-100 = 100%, mean ± SD, 2 experiments in duplicates
# [13] = Vesicle leakage assay, PC-CL; assay type: biochemical; conditions: for relative change in leakage compared to PC-LUVs: P ≤ 0.05; for % Leakage: PC-CL-LUVs, 50 μM lipid, ANTS-DPX, HEPES pH 7.4, 30 min, 37°C, 1% Triton X-100 = 100%, mean ± SD, 2 experiments in duplicates
# [14] = cited from earlier work
# [15] = system: mammalian cells; primary human skin cells and three-dimensional skin epidermal models; conditions: cited from earlier work
# [16] = system: C. albicans cells; assay: Ultrastructural analysis by electron microscopy of cryo-fixed cells; conditions: 30 μM, 60 min, 30°C
substance,measurement,setting,value
KKLLPIVKNLLKSLL-NH2 (C-terminus assumed) [TB_KKG6K],time to maximum DiSC3(5) fluorescence intensity,[1]; 1 μM peptide,15 min
same,time to maximum DiSC3(5) fluorescence intensity,[1]; 2 μM peptide,25 min
same,"membrane depolarization, DiSC3(5) fluorescence intensity","[1]; 1 × 10^6 cells/mL, 30°C, 60 min, TB analog 0.5, 1, 2 μM, Triton X-100 1% (wt/vol), PCγ^C-terminal 32 μM",induced membrane depolarization in a concentration- and time-dependent manner
same,relative change in leakage compared to PC-LUVs,[2]; 4 μM peptide,+30%
same,relative change in leakage compared to PC-LUVs,[2]; 8 μM peptide,+20%
same,% Leakage,[2]; 2 μM peptide (lipid:peptide 25:1),56% ± 4% and 56.0 ± 4.0%
same,% Leakage,[2]; 4 μM peptide (12:1),57.7 ± 3.9%
same,% Leakage,[2]; 8 μM peptide (6:1),61% ± 4% and 61.1 ± 4.1%
same,% Leakage,[3]; 2 μM peptide (25:1),5.3 ± 1.3%
same,% Leakage,[3]; 4 μM peptide (12:1),40.2 ± 0.9%
same,% Leakage,[3]; 8 μM peptide (6:1),61% ± 3% and 61.5 ± 2.7%
same,% Leakage,[4]; 2 μM peptide (25:1),33.8 ± 3.0%
same,% Leakage,[4]; 4 μM peptide (12:1),40.6 ± 3.2%
same,% Leakage,[4]; 8 μM peptide (6:1),49.2 ± 4.5%
same,relative change in leakage compared to PC-LUVs,[5]; 2 μM peptide,−44%
same,relative change in leakage compared to PC-LUVs,[5]; 4 μM peptide,−34%
same,relative change in leakage compared to PC-LUVs,[5]; 8 μM peptide,−31%
same,% Leakage,[5]; 2 μM peptide (25:1),18.8 ± 3.1%
same,% Leakage,[5]; 4 μM peptide (12:1),26.5 ± 1.0%
same,% Leakage,[5]; 8 μM peptide (6:1),33.9 ± 2.0%
same,relative change in leakage compared to PC-LUVs,"[6]; 2 μM peptide, P ≤ 0.05",−47%
same,% Leakage,[6]; 2 μM peptide (25:1),17.9 ± 1.8%
same,% Leakage,[6]; 4 μM peptide (12:1),39.9 ± 2.4%
same,% Leakage,[6]; 8 μM peptide (6:1),44.8 ± 1.9%
same,relative change in leakage compared to PC-LUVs,[7]; 4 μM peptide,+29%
same,relative change in leakage compared to PC-LUVs,[7]; 8 μM peptide,+15%
same,% Leakage,[7]; 2 μM peptide (25:1),37.7 ± 3.9%
same,% Leakage,[7]; 4 μM peptide (12:1),52.5 ± 2.4%
same,% Leakage,[7]; 8 μM peptide (6:1),56.5 ± 2.9%
same,relative change in leakage compared to PC-LUVs,[8]; 2 μM peptide,−32%
same,relative change in leakage compared to PC-LUVs,[8]; 4 μM peptide,−22%
same,relative change in leakage compared to PC-LUVs,[8]; 8 μM peptide,−19%
same,% Leakage,[8]; 2 μM peptide (25:1),22.8 ± 1.3%
same,% Leakage,[8]; 4 μM peptide (12:1),31.5 ± 2.1%
same,% Leakage,[8]; 8 μM peptide (6:1),40.0 ± 3.1%
same,relative change in leakage compared to PC-LUVs,"[9]; 2 μM peptide, P ≤ 0.05",−33%
same,% Leakage,[9]; 2 μM peptide (25:1),22.6 ± 3.3%
same,% Leakage,[9]; 4 μM peptide (12:1),38.1 ± 10.5%
same,% Leakage,[9]; 8 μM peptide (6:1),47.4 ± 15.1%
same,relative change in leakage compared to PC-LUVs,[10]; 2 μM peptide,−71%
same,relative change in leakage compared to PC-LUVs,[10]; 4 μM peptide,−68%
same,relative change in leakage compared to PC-LUVs,[10]; 8 μM peptide,−66%
same,% Leakage,[10]; 2 μM peptide (25:1),9.8 ± 1.5%
same,% Leakage,[10]; 4 μM peptide (12:1),13.0 ± 0.6%
same,% Leakage,[10]; 8 μM peptide (6:1),16.9 ± 2.0%
same,relative change in leakage compared to PC-LUVs,[11]; 2 μM peptide,−56%
same,relative change in leakage compared to PC-LUVs,[11]; 4 μM peptide,−58%
same,relative change in leakage compared to PC-LUVs,[11]; 8 μM peptide,−68%
same,% Leakage,[11]; 2 μM peptide (25:1),14.8 ± 0.8%
same,% Leakage,[11]; 4 μM peptide (12:1),17.1 ± 6.0%
same,% Leakage,[11]; 8 μM peptide (6:1),15.8 ± 1.3%
same,relative change in leakage compared to PC-LUVs,[12]; 2 μM peptide,−36%
same,relative change in leakage compared to PC-LUVs,[12]; 4 μM peptide,−26%
same,% Leakage,[12]; 2 μM peptide (25:1),21.8 ± 3.5%
same,% Leakage,[12]; 4 μM peptide (12:1),30.1 ± 4.6%
same,% Leakage,[12]; 8 μM peptide (6:1),46.3 ± 4.2%
same,relative change in leakage compared to PC-LUVs,[13]; 2 μM peptide,−93%
same,relative change in leakage compared to PC-LUVs,[13]; 4 μM peptide,−75%
same,relative change in leakage compared to PC-LUVs,[13]; 8 μM peptide,+20%
same,% Leakage,[13]; 2 μM peptide (25:1),2.2 ± 0.8%
same,% Leakage,[13]; 4 μM peptide (12:1),9.9 ± 0.7%
same,% Leakage,[13]; 8 μM peptide (6:1),59.0 ± 5.8%
same,hydrophobicity (hydrophobic amino acids),[14],53%
same,positive net charge,[14]; pH 7,+3.9
same,hemolysis and cytotoxicity to mammalian cells in vitro,[15],neither hemolytic nor cytotoxic
same,tolerance by primary human skin cells and three-dimensional skin epidermal models in vitro,[15],well tolerated
same,cell lysis,[16],indications of cell lysis were not observed
same,ultrastructural damage,[16],severe ultrastructural damage to the vast majority of cells
